# Assay results from patent publication US11753407B2, “Compounds for treating spinal muscular atrophy” (PTC Therapeutics, Inc., priority 2012, dated 2023).
# Key:
# [1] = test system: Smn protein produced from the SMN2 gene; assay: Smn protein assay in tissues of adult C/C-allele SMA mice; format: in vivo; conditions: brain, spinal cord, muscle
# Method: This Smn protein assay compares tissues from test compound treated mice with those from DMSO vehicle treated mice to determine the increase in levels of Smn protein produced from the human SMN2 gene.
# Protocol. The tissue samples in Safe-Lock tubes are weighed and the volume of RIPA buffer containing the protease inhibitor cocktail is added based on the weight to volume ratios for each type of tissue: Brain (50 mg/mL), Muscle (50 mg/mL) and Spinal Cord (25 mg/mL).
# Tissues are homogenized using the TissueLyzer by bead milling. 5 mm stainless steel beads are added to the sample and shaken vigorously for 5 minutes at 30 Hz in the TissueLyzer. […] Fluorescence for each well of the plate at 665 nm and 620 nm is measured on an EnVision multilabel plate reader (Perkin-Elmer). The total protein in the tissue homogenate is measured using the BCA assay according to the manufacturer's protocol.
# The normalized fluorescence signal is calculated for each sample, Blank and vehicle control well by dividing the signal at 665 nm by the signal at 620 nm. Normalizing the signal accounts for possible fluorescence quenching due to the matrix effect of the tissue homogenate. […] The ΔF value for each tissue sample well is divided by the total protein quantity (determined using the BCA assay) for that tissue sample. […]
# [2] = test system: human SMN1 minigene mRNA (SMN1-A minigene) in HEK293H cells; assay: Human SMN1 minigene mRNA end-point semi-quantitative RT-PCR splicing assay in cultured cells; format: cell-based; conditions: HEK293H cells transfected with SMN1-A minigene, increasing concentrations, 7 hours, end-point RT-PCR (FIG. 17)
# Source text: The RT-PCR assay is used to visualize and quantify the levels of the human SMN1 minigene full length and Δ7 mRNA in primary cells and cell lines expressing the human SMN1 minigene construct treated with a test compound.
# Using the procedure for the preparation of the SMN2 minigene construct described in Biological Example 1, the SMN1 version of the minigene is generated by replacing the sixth nucleotide of exon 7 (a thymine residue) of the SMN2-A minigene construct to cytosine using site-directed mutagenesis. Thus, similar to the SMN2-A minigene construct, the SMN1 minigene construct has a single adenine residue inserted after nucleic residue 48 of exon 7. The SMN1 minigene construct is referred to as SMN1-A.
# Protocol. HEK293H cells (10,000 cells/well/199 μL) were transfected, using FuGENE-6 reagent, in a 96-well plate with 15 ng of the SMN1-A minigene reporter plasmid per well. Cells were incubated for 24 hours following transfection. Test compounds were serially diluted 3.16-fold in 100% DMSO to generate a 7-point concentration curve. A solution of test compound (1 μL, 200× in DMSO) was added to each test well. 1 μL DMSO was added to each control well. The plate was incubated for 7 hours in a cell culture incubator (37° C., 5% CO2, 100% relative humidity). The cells were then lysed in Cells-To-Ct lysis buffer and the lysates were stored at −80° C.
# Two SMN spliced mRNA are generated from the SMN1 minigene. The term “SMN1 minigene FL” refers to the first spliced product containing exon 7, corresponding to full length SMN1 mRNA. The term “SMN1 minigene Δ7” refers to the second product lacking exon 7.
# SMN minigene FL and Δ7 mRNA are amplified using the primers in Table 11. Primer SMN Forward C (SEQ ID NO. 11) hybridizes to a nucleotide sequence in exon 6 (nucleotide 43 to nucleotide 63), primer SMN Reverse A (SEQ ID NO. 2) hybridizes to a nucleotide sequence in the coding sequence of Firefly luciferase. The combination of these two oligonucleotides detects only SMN1 or SMN2 minigenes (RT-PCR) and will not detect endogenous SMN1 or SMN2 genes. Since the HEK293H cells used in Example 16 were transfected with only the human SMN1 minigene, RT-PCR can visualize and quantify only SMN1 minigene full-length and SMN1 minigene Δ7 mRNA.
# To synthesize cDNA, 5 μL of lysate, 4 μL of 5× iScript reaction mix, 1 μL of reverse transcriptase, and 10 μL of water are combined and incubated 5 min at 25° C. followed by 30 min at 42° C., followed by 5 min at 85° C. The cDNA solution is stored at −20° C.
# To perform endpoint PCR, 5 μL of cDNA, 0.2 μL of 100 μM forward primer, 0.2 μL of 100 μM reverse primer, and 22.5 μL of polymerase super mix are combined in a 96 well semiskirted PCR plate. PCR is carried out at the following temperatures for the indicated time: Step 1: 94° C. (2 min), Step 2: 94° C. […]
SMILES,"total protein-normalized Smn level ([1]; 100 mg/kg BID for 10 days, relative to vehicle group (FIG. 11a))",SMN1 minigene FL mRNA [2],SMN1 minigene Δ7 mRNA [2],"total protein-normalized Smn level ([1]; 10 mg/kg BID for 10 days, relative to vehicle group (FIG. 11b))"
"COc1ccc(-c2cc(=O)n3cc(N4CCNCC4)ccc3n2)cc1OC [Cpd 6, 2-(3,4-dimethoxyphenyl)-7-(piperazin-1-yl)-4H-pyrido[1,2-a]pyrimidin-4-one]","increased in brain, spinal cord, and muscle tissues",progressively more SMN1 minigene FL mRNA,less SMN1 minigene Δ7 mRNA,
"Cc1cn2nc(-c3cc(=O)n4cc(N5CCN(C)CC5)ccc4n3)cc2c(C)n1 [Cpd 170, 2-(4,6-dimethylpyrazolo[1,5-a]pyrazin-2-yl)-7-(4-methylpiperazin-1-yl)-4H-pyrido[1,2-a]pyrimidin-4-one]",,progressively more SMN1 minigene FL mRNA,less SMN1 minigene Δ7 mRNA,"increased in brain, spinal cord, and muscle tissues"
